Laboratory results as given in patent publication US7226741B2, “Multimerization of HIV-1 Vif protein as a therapeutic target” (priority 2001, dated 2007).

Target: T1, HIV-1 Vif protein (Vif-Vif interaction) (Human immunodeficiency virus type 1 group M subtype B, UniProt P12504)
T1 construct: The vif gene also was inserted into pGEX vector for in vitro expression and isolation of GST-Vif fusion protein; The PCR-generated wild-type vif gene and its mutants were then inserted into pCITE-4a vector; made in house; host or cells: GST-Vif: E. coli BL21 (pGEX); 35S-Vif: in vitro translation from pCITE-4a (Novagen kit)
T1 sequence (P12504 whole entry, the tested form may be a part): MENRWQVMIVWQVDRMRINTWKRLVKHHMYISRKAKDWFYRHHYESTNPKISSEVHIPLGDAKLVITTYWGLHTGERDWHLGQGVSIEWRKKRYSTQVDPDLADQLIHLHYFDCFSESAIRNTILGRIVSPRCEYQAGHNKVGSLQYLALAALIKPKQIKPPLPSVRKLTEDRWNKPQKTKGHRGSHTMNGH
Type: binding
Settings: for 35S-Vif binds with GST-Vif (%) Mean ± SD: peptide added to the Vif-Vif binding reaction, no peptide (GST pull-down) designated as 100%; for Inhibition of Vif-Vif interaction (in words): synthesized peptides added into the reaction system for Vif-Vif binding, in vitro
Procedure: The vector pGEX, with or without the vif gene, was transformed into BL21 competent cells (Novagen, Madison, Wis.). After growth at 37° C. to approximately 0.6 O.D., the expression of GST or GST-Vif proteins was induced by 0.4 mM isopropylthio-β-D-galactoside (IPTG). The bacterial cells were lyzed by adding lysing buffer (1% Triton-X-100, 0.1 mg/ml lysozyme, 2 mM EDTA, 1 mM PMSF, 2 μg/ml leupeptin, and 1 μg/ml aprotinin), followed by sonication. The sample was pelleted at 12,000 g for 10 min at 4° C., and the supernatant was applied to a glutathione-conjugated agarose bead (Sigma, St. Louis, Mo.) column. After batch binding, the matrix was washed three times, each time by the addition of 10 bed volumes of phosphorus-buffer saline (PBS). The GST or GST-Vif conjugated agarose beads were then aliquoted and stored at −20° C. Conversely, ^35S-labeled Vif or its mutant proteins were synthesized utilizing SPT3 kits (Novagen, Madison, Wis.). The protocol supplied by the manufacturer was followed. After in vitro translation, RNase A (0.2 mg/ml) was added to stop the reaction and remove tRNAs and the in vitro transcribed mRNA. The trichloroacetic acid (TCA)-insoluble radioactive amino acids were quantitated in the presence of a scintillation cocktail.
For GST pull-down assays, a GST or GST-Vif conjugated bead slurry was mixed with ^35S-labeled Vif or its mutants (50,000 cpm) in a binding buffer [150 mM NaCl, 20 mM Tris-HCl (pH 7.5), 0.1% Triton-X-100]. After binding at 4° C. for 1 hour, the mixture was centrifuged at 3,000 g for 1 min, and the beads were washed three times with binding buffer. The ^35S-labeled Vif proteins were dissociated from the beads by adding SDS-containing loading buffer and heating at 95° C. for 5 minutes. The samples were then electrophoresized in SDS-PAGE gels (15% Tris-HCl ready gel made by Bio-Rad, Hercules, Calif.). After treatment with the fixing buffer (10% acetic acid, 10% methanol) and then the Amplify (Amersham-Pharmacia, Piscataway, N.J.), the gels were dried and exposed to X-ray film or quantitatively analyzed utilizing phosphor image (Molecular Dynamics, Sunnyview, Calif.).
A Vif-Vif binding assay was similar to the GST pull-down assays, except that the GST or GST-Vif conjugated bead slurry was mixed with ^35S-labeled Vif and the test peptides or molecules in the binding buffer. The results were compared to that from the GST pull-down assay, which was designated as 100%.

Question: With ESAIRKAILGHIVSP [Vif117-131] as the sequence, how does the “35S-Vif binds with GST-Vif (%) Mean ± SD” value read?
Answer: 94.5 ± 11.2%

Question: For KKIKPPLPSVTKLTE [Vif157-171], which “35S-Vif binds with GST-Vif (%) Mean ± SD” value is on record?
Answer: 49.2 ± 2.5%

Question: And the “Inhibition of Vif-Vif interaction (in words)” value (from here on “Inhibition”)?
Answer: able to inhibit the Vif-Vif interaction

Question: “SVSVGMKPSPRP (Synthetic peptide containing PXP motif) [VMI5, 12-mer peptide containing a PXP motif]” was tested. Which “35S-Vif binds with GST-Vif (%) Mean ± SD” value did it give?
Answer: 36.3 ± 5.1%

Question: For PPLPSVTKLTEDRWN [Vif161-175], which “35S-Vif binds with GST-Vif (%) Mean ± SD” value is on record?
Answer: 70.2 ± 5.5%

Question: And the “Inhibition” value?
Answer: able to inhibit the Vif-Vif interaction

Question: LPLPAPSFHRTT [VMI9] was tested. Which “35S-Vif binds with GST-Vif (%) Mean ± SD” value did it give?
Answer: 22.0 + 6.2%

Question: And the “Inhibition” value?
Answer: significantly inhibit Vif-Vif interaction

Question: For KPKKIKPPLPSV [Vif155-166], which “35S-Vif binds with GST-Vif (%) Mean ± SD” value is on record?
Answer: 57.1 ± 8.7%

Question: What about the “Inhibition” value of the same sequence?
Answer: able to inhibit the Vif-Vif interaction

Question: What does the source list for SNQGGSPLPRSV [VMI7]?
Answer: 35S-Vif binds with GST-Vif (%) Mean ± SD: 19.0 ± 2.2%; Inhibition of Vif-Vif interaction (in words): significantly inhibit Vif-Vif interaction
